Data from patent US20030134901A1, “Lipoxin compounds and their use in treating cell proliferative disorders” (priority 1993, published 2003).

Legend:
[1] = biological target: T1, 15-PGDH (Homo sapiens, UniProt P15428); assay: 15-HETE to 15-oxo-ETE dehydrogenase activity of 100,000 g supernatants of PMA-treated HL-60 cells; type: biochemical
T1 construct: 100,000 g supernatants prepared from PMA-treated HL-60 cells converted 15-HETE to 15-oxo-ETE; endogenous in cells; host or cells: HL-60 cells treated with PMA (16 nM, 24-72 h); freeze-thaw lysate, 100,000 g supernatant
T1 sequence (P15428 1-266): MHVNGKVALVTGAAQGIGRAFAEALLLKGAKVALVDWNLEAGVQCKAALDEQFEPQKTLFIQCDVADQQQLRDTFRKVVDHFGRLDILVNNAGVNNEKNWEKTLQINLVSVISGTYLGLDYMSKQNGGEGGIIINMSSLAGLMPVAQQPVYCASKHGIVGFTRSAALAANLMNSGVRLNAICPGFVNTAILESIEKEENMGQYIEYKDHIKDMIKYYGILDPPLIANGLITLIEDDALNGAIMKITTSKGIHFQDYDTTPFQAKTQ
Procedure: (§1) Human PMN were obtained from healthy volunteers by gradient centrifugation of heparinized fresh venous blood (Böyum, A. ([…]) Scand. J. Clin. Lab. Invest. 21:77). HL-60 cells were seeded in RPMI supplemented with penicillin (100 U/ml), streptomycin (100 μ/ml), fetal bovine serum (10%) (Hyclone, Logan, Utah) and incubated (37° C. with 5% CO2 atmosphere) in plastic 250 ml flasks. Individual flasks containing […] HL-60 cells/ml were incubated in the presence or absence of phorbol 12-myristate 13-acetate (PMA) (10 or 16 nM, 24-27 h) and adherence was monitored for induction of macrophage-like phenotype as in Collins, S. J. (1987) Blood 70:1233. […]
(§2) Incubations with eicosanoids were stopped with cold methanol containing either PGB2 or 5-HETE as internal standards (5-HETE was used when 15-oxo-ETE was quantified). […] Formation of 15-oxo-ETE by 100,000 g supernatants (cf. Agins, A. P. et al. (1987) Agents Actions 21:397; Xun, C-Q. et al.(1991) Biochem. J. 279:553; and Sok, D-E. et al. (1988) Biochem. Biophys. Res. Commun. 156:524) was quantified after RP-HPLC using an ODS column (4.6 mm×25 cm) eluted with methanol/H2O/acetic acid (70:30:0.01, v/v/v) monitored at 280 nm with a flow rate of 1 ml/min. […] On-line spectra were recorded using a diode array detector (Hewlett-Packard 1040M series II) equipped with HPLC^3D ChemStation software (DOS series). […]

[2] = biological target: T2, LTB4 specific binding sites of HL-60 cells (Homo sapiens, UniProt Q15722); assay: 3H-LTB4 specific binding to HL-60 cells; settings: competitor 300 nM, differentiated HL-60 cells
T2 construct: endogenous in cells; host or cells: differentiated HL-60 cells, intact

[3] = test system: Intact neutrophils from peripheral blood; assay: LXA4 metabolism by intact neutrophils; type: in vitro ADME, human; settings: intact neutrophils of healthy donors
Procedure: as §1, §2

T2 sequence (Q15722 whole entry): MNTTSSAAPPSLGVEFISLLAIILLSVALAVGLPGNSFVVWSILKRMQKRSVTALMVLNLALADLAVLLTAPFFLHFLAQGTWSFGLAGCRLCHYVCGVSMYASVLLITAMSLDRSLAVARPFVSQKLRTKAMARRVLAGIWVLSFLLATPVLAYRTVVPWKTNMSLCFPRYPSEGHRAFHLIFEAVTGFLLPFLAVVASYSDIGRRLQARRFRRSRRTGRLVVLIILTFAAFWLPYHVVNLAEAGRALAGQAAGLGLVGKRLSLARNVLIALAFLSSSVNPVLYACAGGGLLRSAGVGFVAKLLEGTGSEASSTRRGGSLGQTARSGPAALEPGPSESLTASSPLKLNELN

CCCCC[C@H](O)/C=C/C=C\C=C\C=C\[C@@H](O)[C@@H](O)CCCC(=O)O [LXA4, (5S, 6R, 15S)-trihydroxy-7E, 9E, 11Z, 13E-eicosatetraenoic acid]
Ki ([1]; Lineweaver-Burke plots, S.E.M., n=6, read-out: Ki, competition for catalysis of 15-HETE): 8.2 ± 2.6 µM
block of 15-oxo-ETE formation ([1]; equimolar concentrations of LXA4 and 15-HETE): ≈ 50%
competition with 3H-LTB4 (0.3 nM) binding [2]: unable to compete
metabolism of exogenous LXA4 [3]: did not significantly metabolize
